Two compounds from ChEMBL document CHEMBL4834431, “Design of Dimeric Bile Acid Derivatives as Potent and Selective Human NTCP Inhibitors” (J Med Chem, 2021) can be followed below.

Series [1] relates to HepG2. Briefly: Effect on NTCP surface expression in human HepG2-NTCP cells assessed as reduction in NTCP surface expression level after 2 hrs by immunostaining based assay. The series is classed as functional, cell-based.
Series [2] has as its target T1, Ileal sodium/bile acid cotransporter (Homo sapiens, UniProt Q12908).
T1 sequence (Q12908 whole entry): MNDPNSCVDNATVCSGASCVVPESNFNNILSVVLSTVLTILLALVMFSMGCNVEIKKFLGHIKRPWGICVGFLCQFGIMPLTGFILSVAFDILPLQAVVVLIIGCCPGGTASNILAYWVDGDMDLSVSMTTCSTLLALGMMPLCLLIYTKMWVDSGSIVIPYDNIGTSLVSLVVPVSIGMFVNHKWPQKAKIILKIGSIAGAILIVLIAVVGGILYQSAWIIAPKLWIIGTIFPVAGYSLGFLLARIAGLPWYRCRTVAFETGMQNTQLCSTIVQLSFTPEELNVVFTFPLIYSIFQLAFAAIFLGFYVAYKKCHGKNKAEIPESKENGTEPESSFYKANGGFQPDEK
As to the kind of experiment: Inhibition of human ASBT-mediated [3H]-TCA uptake expressed in human HepG2 cells at 2 uM. It is filed as cell-based. Conditions: hepg2, 2 µM.

Series [3] has as its target T2, Hepatic sodium/bile acid cotransporter (Homo sapiens, UniProt Q14973).
T2 sequence (Q14973 whole entry): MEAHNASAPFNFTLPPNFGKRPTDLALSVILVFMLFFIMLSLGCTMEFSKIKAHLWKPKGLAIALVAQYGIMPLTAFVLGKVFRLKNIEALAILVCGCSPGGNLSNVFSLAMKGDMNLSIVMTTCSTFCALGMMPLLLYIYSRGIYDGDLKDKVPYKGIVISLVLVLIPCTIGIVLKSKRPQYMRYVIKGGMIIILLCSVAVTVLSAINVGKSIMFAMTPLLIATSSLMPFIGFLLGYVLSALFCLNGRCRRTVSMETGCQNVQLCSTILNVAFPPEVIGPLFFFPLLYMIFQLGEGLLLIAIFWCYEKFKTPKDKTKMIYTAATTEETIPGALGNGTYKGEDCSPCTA
Briefly: Inhibition of human NTCP-mediated NQL-065 uptake expressed in human HepG2 cells incubated for 30 mins. It is filed as cell-based. Conditions: hepg2, 0.5 h.

The test system of series [4] is Hepatitis B virus. Briefly: Antiviral activity against HBV infected in human HepG2-NTCP cells assessed as reduction in HBeAg secretion at 1 uM pre-infected with virus followed by compound addition by ELISA. The series is classed as functional, organism-based. (ELISA stands for enzyme-linked immunosorbent assay.)
Series [5] concerns the target T3, Hepatic sodium/bile acid cotransporter (Mus musculus, UniProt O08705).
T3 sequence (O08705 whole entry): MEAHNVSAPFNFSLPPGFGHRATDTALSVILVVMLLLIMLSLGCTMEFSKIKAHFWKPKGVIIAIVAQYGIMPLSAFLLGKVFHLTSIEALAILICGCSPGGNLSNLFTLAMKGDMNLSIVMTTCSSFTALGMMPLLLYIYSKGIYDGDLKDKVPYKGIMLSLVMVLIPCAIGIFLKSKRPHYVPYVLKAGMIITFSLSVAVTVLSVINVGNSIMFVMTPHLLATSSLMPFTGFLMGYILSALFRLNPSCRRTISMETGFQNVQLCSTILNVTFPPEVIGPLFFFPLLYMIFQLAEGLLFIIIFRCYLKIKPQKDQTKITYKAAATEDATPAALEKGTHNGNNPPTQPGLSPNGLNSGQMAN
As to the kind of experiment: Inhibition of mouse NTCP-mediated [3H]-TCA uptake expressed in human HepG2 cells. It is filed as cell-based.

In series [6] the test system is HepG2. As to the kind of experiment: Cytotoxicity against human HepG2 cells expressing NTCP assessed as reduction in cell viability at 10 uM after 48 hrs by alamar blue assay. The series is classed as cell-based. As to conditions: hepg2, 48 h.
Series [7] deals with Hepatitis B virus. As to the kind of experiment: Antiviral activity against HBV infected in human HepG2-NTCP cells assessed as reduction in intracellular HBV RNA level at 1 uM by qPCR analysis. It is filed as functional, organism-based. In general terms: In qPCR the cycle at which signal appears reflects the starting amount.
The test system of a further series is Hepatocyte. As to the kind of experiment: Cytotoxicity against primary tupaia hepatocytes expressing NTCP assessed as reduction in cell viability at 100 uM after 48 hrs by Cell-Titer Glo assay. The series is classed as cell-based. As to conditions: scandentia.
In series [8] the target is T2, Hepatic sodium/bile acid cotransporter. Briefly: Inhibition of human NTCP-mediated NQL-064 uptake expressed in human HepG2 cells incubated for 30 mins. The series is classed as cell-based. Conditions: hepg2, 0.5 h.
Series [9] deals with Hepatitis B virus. Briefly: Antiviral activity against HBV infected in human HepG2-NTCP cells assessed as reduction in HBeAg secretion incubated for 24 hrs followed replacement with fresh medium and measured at day 5 post infection by ELISA. It is filed as functional, organism-based.
The subject of series [10] is Hepatitis B virus. As to the kind of experiment: Antiviral activity against HBV infected in human HepG2-NTCP cells assessed as reduction in HBeAg secretion preincubated for 2 hrs followed by viral infection by ELISA. It is filed as functional, organism-based.
Series [11] has as its target T2, Hepatic sodium/bile acid cotransporter. Briefly: Inhibition of human NTCP-mediated [3H]-Estrone sulfate uptake expressed in human HepG2 cells at 2 uM. The series is classed as cell-based. Conditions: hepg2, 2 µM.
Series [12] concerns the target T4, Solute carrier organic anion transporter family member 1B1 (Homo sapiens, UniProt Q9Y6L6).
T4 sequence (Q9Y6L6 whole entry): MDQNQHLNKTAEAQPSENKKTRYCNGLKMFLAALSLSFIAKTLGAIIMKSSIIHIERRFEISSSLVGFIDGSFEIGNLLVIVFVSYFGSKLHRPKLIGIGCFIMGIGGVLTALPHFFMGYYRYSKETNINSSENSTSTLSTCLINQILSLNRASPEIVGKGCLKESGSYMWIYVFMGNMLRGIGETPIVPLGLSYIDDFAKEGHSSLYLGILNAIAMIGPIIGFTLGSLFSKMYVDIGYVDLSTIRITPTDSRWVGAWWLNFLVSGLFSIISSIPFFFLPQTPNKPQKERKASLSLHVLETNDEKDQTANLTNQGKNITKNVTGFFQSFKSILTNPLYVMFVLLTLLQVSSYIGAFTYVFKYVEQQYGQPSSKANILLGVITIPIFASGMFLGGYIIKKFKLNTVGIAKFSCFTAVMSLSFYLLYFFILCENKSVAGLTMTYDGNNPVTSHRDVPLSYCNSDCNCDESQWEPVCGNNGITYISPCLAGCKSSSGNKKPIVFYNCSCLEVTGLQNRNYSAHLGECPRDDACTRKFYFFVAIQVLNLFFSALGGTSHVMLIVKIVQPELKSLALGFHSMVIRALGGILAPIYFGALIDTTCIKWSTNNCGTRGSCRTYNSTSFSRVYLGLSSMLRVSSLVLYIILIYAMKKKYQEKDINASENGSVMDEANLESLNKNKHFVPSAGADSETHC
Briefly: Inhibition of human OATP1B1-mediated [3H]-Estrone sulfate uptake expressed in human HepG2 cells at 2 uM. It is filed as cell-based. Conditions: hepg2, 2 µM.

Series [13] deals with T2, Hepatic sodium/bile acid cotransporter. Briefly: Inhibition of human NTCP-mediated [3H]-TCA uptake expressed in human HepG2 cells at 2 uM. The series is classed as cell-based. As to conditions: hepg2, 2 µM.
Series [14] deals with Hepatitis B virus. As to the kind of experiment: Antiviral activity against HBV infected in human HepG2-NTCP cells assessed as reduction in HBeAg secretion at 1 uM preincubated with compound followed by viral infection by ELISA. It is filed as functional, organism-based.
Series [15] has as its target T2, Hepatic sodium/bile acid cotransporter. As to the kind of experiment: Inhibition of human NTCP-mediated [3H]-TCA uptake expressed in human HepG2 cells. The series is classed as cell-based. As to conditions: for inhibition (INH): human, hepg2.
Series [16] has as its system Hepatitis B virus. As to the kind of experiment: Antiviral activity against HBV infected in human HepG2-NTCP cells assessed as reduction in HBeAg secretion at 111 to 1000 nM incubated for 24 hrs followed by replacement with fresh medium and measured at day 5 post infection by ELISA. The series is classed as functional, organism-based. As to conditions: dose 111-1000 nM.

Activity calls are given as the source filed them. No cut-off for these calls is given here.

By IC50 is commonly meant the midpoint of a concentration-inhibition curve. In the case of `C[C@H](CCC(=O)O[C@@H]1CC[C@@]2(C)[C@@H](C1)C[C@H](O)[C@@H]1[C@@H]2CC[C@]2(C)[C@@H]([C@H](C)CCC(=O)NCCS(=O)(=O)O)CC[C@@H]12)[C@H]1CC[C@H]2[C@@H]3[C@@H](O)C[C@@H]4C[C@H](O)CC[C@]4(C)[C@H]3CC[C@]12C`, the result in the series with HepG2 [1] and with Hepatitis B virus [4] was inactive. Moreover, the “inhibition (INH)” value is “Not Active” in series [2]; “Active” in [3]; “Active” in series [5]; “Active” in series [8]; “Active” in series [11]; “Not Active” in series [12]. In addition, the “inhibition (INH)” value in [13] and in [15] was “Active” in each case. Further, the Activity result in the series on HepG2 [6] and with Hepatocyte was “Non-Toxic” in each case. Also, the outcome with Hepatitis B virus [7], with Hepatitis B virus [10], with Hepatitis B virus [14] and with Hepatitis B virus [16] was Active. For the same compound, in the series on Hepatitis B virus [9], the 50% inhibitory concentration (IC50) was found to be 58 nM.

For the compound `C[C@H](CCC(=O)NCCS(=O)(=O)O)[C@H]1CC[C@H]2[C@@H]3[C@@H](O)C[C@@H]4C[C@H](NC(=O)CCCC(=O)N[C@@H]5CC[C@@]6(C)[C@@H](C5)C[C@H](O)[C@@H]5[C@@H]6CC[C@]6(C)[C@@H]([C@H](C)CCC(=O)NCCS(=O)(=O)O)CC[C@@H]56)CC[C@]4(C)[C@H]3CC[C@]12C`, the outcome in the series on HepG2 [1], in the series on Hepatitis B virus [4] and in the series with Hepatitis B virus [10] was inactive. The “inhibition (INH)” value in series [2] is given as “Not Active”; in series [3], “Active”; in [5] it was “Not Active”; in [8], “Active”; in [11], “Active”; in series [12], “Not Active”. The “inhibition (INH)” value in [13] and in [15] was “Active” throughout. Moreover, the Activity result in the series on HepG2 [6] and in the series with Hepatocyte was “Non-Toxic” each time. Moreover, the result in the series on Hepatitis B virus [7], with Hepatitis B virus [14] and in the series with Hepatitis B virus [16] was Active. Moreover, the IC50 in the series on Hepatitis B virus [9] worked out at 41 nM; in [15], 58.3 nM.
